Publication PMC8603191, “Fragment-based design of selective GPCR ligands guided by free energy simulations” (Chemical communications (Cambridge, England), 2021)
“And” between values parts separate entries of the source, which are not always exact repeats. Equal values may be shown once.

Key:
human A2AAR = target: T1, human A2AAR (Homo sapiens, UniProt P29274); test: Radioligand binding assay, displacement of [3H]ZM241385; settings: for Free energy of binding (ΔG) A2AAR: calculated from experimental binding affinities; for Ki: displacement of [3H]ZM241385, means ± SEM from 2-4 independent experiments; for ΔΔG Experimental A2AAR: based on Table S3
T1 construct: expressed in transfected cells; host or cells: HEK293 (membrane preparations)
Description: (§1) Radioligand binding assays. HEK293 cells expressing the human A1- or A2AARs were cultured in DMEM supplemented with 10% fetal bovine serum, 100 Units/ml penicillin, 100 µg/ml streptomycin, and 2 µmol/ml glutamine. Cells were detached from plates by scraping into cold PBS and centrifuged at 250 g for 5 min. The pellets were resuspended in ice-cold Tris HCl buffer (50 mM, pH 7.4) and then homogenized. After homogenization and suspension, cells were centrifuged at 1000 g for 10 min, and the pellet was discarded.
(§2) The suspension was then re-centrifuged at 20,000 g for 60 min at 4 °C. The pellets were resuspended in buffer containing 3 Units/ml adenosine deaminase and incubated at 37°C for 30 min. The aliquots of membrane preparations were stored at −80°C until the binding experiments. For displacement binding assays, membrane preparations (20 µg proteins/tube) were incubated at 25°C for 60 min with a final concentration of [3H]DPCPX (0.5 nM) and [3H]ZM241385 (1.0 nM) for A1- and A2AARs, respectively, in a mixture containing 50 µL of increasing concentrations of a test ligand in a total assay volume of 200 µL of 50 mM Tris HCl, pH 7.4, containing 10 mM MgCl2. Nonspecific binding was determined using 100 µM of XAC. The reaction was terminated by filtration with GF/B filters using a Brandel 24-channel harvester. Filters were placed in scintillation vials containing 5 ml of Hydrofluor scintillation buffer and counted using a PerkinElmer Tricarb 2810TR liquid scintillation counter. […]
(§3) Table S1. Binding affinities of compounds 1-10 based on displacement of [3H]DPCPX and [3H]ZM241385 at the A1AR and A2AAR, respectively.
(§4) Compound Substituent A1AR A2AAR index […]
(§5) a Ki values are expressed as means ± SEM from (2-4) independent experiments. b Free energy of binding (ΔG) calculated from experimental binding affinities (kcal/mol) / Number of heavy atoms (HA). The ligand efficiency (LE) = −ΔG/HA. c Values from Matricon et al.8
(§6) Table S3. Binding affinities of compounds 11-26 based on displacement of [3H]DPCPX and […]
(§7) a K values are expressed as means ± SEM from (2-4) independent experiments.
(§8) Free energy of binding (ΔG) calculated from experimental binding affinities (kcal/mol) / Number of heavy

human A1AR [1] = target: T2, human A1AR (Homo sapiens, UniProt P30542); test: Radioligand binding assay, displacement of [3H]DPCPX; settings: for ligand efficiency (LE, binding free energy per heavy atom): A1AR; for Free energy of binding (ΔG) A1AR: calculated from experimental binding affinities
T2 construct: expressed in transfected cells; host or cells: HEK293 (membrane preparations)
T2 sequence (P30542 1-326): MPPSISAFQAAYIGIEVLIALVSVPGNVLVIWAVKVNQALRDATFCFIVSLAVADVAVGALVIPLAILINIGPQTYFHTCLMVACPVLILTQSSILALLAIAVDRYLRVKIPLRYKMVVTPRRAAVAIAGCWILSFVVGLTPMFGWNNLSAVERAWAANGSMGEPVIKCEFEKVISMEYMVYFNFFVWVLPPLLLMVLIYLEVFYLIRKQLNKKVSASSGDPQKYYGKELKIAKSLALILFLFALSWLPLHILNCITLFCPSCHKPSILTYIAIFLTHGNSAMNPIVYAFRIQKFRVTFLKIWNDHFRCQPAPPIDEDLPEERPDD
Description: as §1, §2, §3, §4, §5, §6, §7, §8

human A1AR [2] = test: as above; settings: A1AR versus A2AAR; for A1AR selectivity index: from Ki values; for selectivity for the A1AR: Fig. 1
Description: as §1, §2, §3, §4, §5, §6, §7, §8

[3] = compound 1 as reference, based on Table S1
[4] = radioligand binding, Fig. 1, Table S5
[5] = displacement of [3H]DPCPX, means ± SEM from 2-4 independent experiments
[6] = reference compound 5, based on Table S3
[7] = reference compound 9, based on Table S3

T1 sequence (P29274 whole entry): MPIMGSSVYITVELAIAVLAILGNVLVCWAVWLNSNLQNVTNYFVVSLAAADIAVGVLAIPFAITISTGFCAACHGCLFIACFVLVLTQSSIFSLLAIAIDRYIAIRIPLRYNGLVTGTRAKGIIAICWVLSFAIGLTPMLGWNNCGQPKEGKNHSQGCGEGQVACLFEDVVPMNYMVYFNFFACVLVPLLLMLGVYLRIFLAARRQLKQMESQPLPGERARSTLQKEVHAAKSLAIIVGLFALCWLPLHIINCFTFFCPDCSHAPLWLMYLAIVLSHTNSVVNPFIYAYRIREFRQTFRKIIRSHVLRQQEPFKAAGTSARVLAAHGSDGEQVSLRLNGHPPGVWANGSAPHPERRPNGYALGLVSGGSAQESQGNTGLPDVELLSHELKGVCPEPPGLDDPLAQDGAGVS

| SMILES | Free energy of binding (ΔG) A2AAR (human A2AAR) [kcal/mol] | Ki (human A2AAR) [nM] | ligand efficiency (LE, binding free energy per heavy atom) (human A1AR [1]) [kcal mol^−1 HA^−1] | Free energy of binding (ΔG) A1AR (human A1AR [1]) [kcal/mol] | improvement of A1AR affinity (human A1AR [1]; compared to compound 1) [fold] | ΔΔG Experimental A1AR (human A1AR [1]; [3]) | Ki (human A1AR [1]; [4]) [nM] | A1AR selectivity index (human A1AR [2]) | selectivity for the A1AR (human A1AR [2]) | ΔΔG Experimental A2AAR (human A2AAR; reference compound 5) | Ki (human A1AR [1]; [5]) | ΔΔG Experimental A1AR (human A1AR [1]; [6]) | ΔΔG Experimental A2AAR (human A2AAR; reference compound 9) | ΔΔG Experimental A1AR (human A1AR [1]; [7]) |
| --- | --- | --- | --- | --- | --- | --- | --- | --- | --- | --- | --- | --- | --- | --- |
| CC(C)(C)C(=O)Nc1nc2ccccc2s1 [Compound 5] | -8.0 | 1430 ± 230 | 0.56 | -9.0 | 39 | –2.2 ± 0.2 kcal/mol | 285 | 5.0 | not more selective for the A1AR compared to 1 |  |  |  |  |  |
| COc1cccc2sc(NC(=O)C(C)(C)C)nc12 [Compound 19] | -9.2 | 199 ± 70 |  | -9.4 |  |  |  | 1.5 |  | –1.2 ± 0.2 kcal/mol | 133 ± 10 nM | –0.5 ± 0.1 kcal/mol |  |  |
| O=C(Nc1nc2ccccc2s1)C1CCCCC1 [Compound 7] | -7.5 | 3410 ± 950 |  | -8.2 |  | –1.4 ± 0.2 kcal/mol |  | 3.2 |  |  | 1080 nM and 1100 nM |  |  |  |
| CC(C)(C)C(=O)Nc1nc2cc(Cl)ccc2s1 [Compound 14] | -8.1 | 1290 ± 280 |  | -9.5 |  |  |  | 11.0 |  | –0.1 ± 0.2 kcal/mol | 117 ± 11 nM | –0.5 ± 0.1 kcal/mol |  |  |
| CC(C)C(=O)Nc1nc2ccccc2s1 [Compound 3] | -7.7 | 2260 ± 360 |  | -8.0 |  | –1.2 ± 0.3 kcal/mol |  | 1.6 |  |  | 1420 nM and 1400 nM |  |  |  |
| CCc1ccc2sc(NC(=O)C(C)(C)C)nc2c1 [Compound 16] | -7.5 | 3380 ± 530 |  | -9.4 |  |  |  | 23.6 |  | 0.5 ± 0.4 kcal/mol | 143 ± 20 nM | –0.4 ± 0.1 kcal/mol |  |  |
| CC1(C(=O)Nc2nc3cc(Cl)ccc3s2)CCCC1 [Compound 21] | -9.1 | 252 ± 89 |  | -10.5 |  |  |  | 11.0 |  |  | 23 ± 6 nM |  | –1.1 ± 0.2 kcal/mol | –2.0 ± 0.2 kcal/mol |
| CCc1ccc2sc(NC(=O)C3(C)CCCC3)nc2c1 [Compound 24] | -7.8 | 2150 ± 90 |  | -9.6 |  |  |  | 22.4 |  |  | 96 ± 13 nM |  | 0.2 ± 0.1 kcal/mol | –1.1 ± 0.1 kcal/mol |
| CC(C)(C)C(=O)Nc1nc2cc(Br)ccc2s1 [Compound 15] | -8.4 | 746 ± 149 | 0.60 | -10.2 |  |  | 40 | 18.7 | 19 fold | –0.4 ± 0.2 kcal/mol |  | –1.2 ± 0.2 kcal/mol |  |  |
| O=C(Nc1nc2ccccc2s1)C12CC3CC(CC1C3)C2 [Compound 8] | -7.8 | 1940 ± 220 |  | -8.7 |  | –1.9 ± 0.3 kcal/mol |  | 4.0 |  |  | 484 ± 173 nM |  |  |  |
| O=C(Nc1nc2ccccc2s1)C1CC1 [Compound 4] | -7.5 | 3270 ± 1140 |  | -7.7 |  | –0.9 ± 0.2 kcal/mol |  | 1.4 |  |  | 2350 nM and 2400 nM |  |  |  |
| CC1(C(=O)Nc2nc3cc(C#N)ccc3s2)CCCC1 [Compound 25] | -7.9 | 1780 ± 740 |  | -9.9 |  |  |  | 27.8 |  |  | 64 ± 6 nM |  | 0.1 ± 0.3 kcal/mol | –1.3 ± 0.1 kcal/mol |
